Reference: article PMC8533752, “Characterization of Microtubule Destabilizing Drugs: A Quantitative Cell-Based Assay That Bridges the Gap between Tubulin Based- and Cytotoxicity Assays” (Cancers, 2021)

Tests used:
tubulin = test system: tubulin; parameters: method as in PMID 32781579; conditions: cited from earlier work
[1] = test system: microtubular network of interphase cells; parameters: method as in PMID 32781579; conditions: cited from earlier work
RPE1 cell microtubules = experiment: Immunofluorescence analysis of RPE1 cell microtubules; type: cell-based, human; conditions: RPE1 cells, 50 nM, 30 min
Method: (§1) Cells at a density of 20,000 cells per well were grown for 48 h on glass coverslips placed in a 24-well microplate. When cells reached 70% confluence, the medium was replaced with a fresh one supplemented with DMSO (0.005% or 0.01%) or the test compound at 50 nM or 1000 nM. After 30 min of incubation, cells were permeabilized in warm OPT buffer (80 mmol/L Pipes, […], 0.5% Triton X-100 and 10% Glycerol, pH 6.8) and fixed for 6 min in −20 °C methanol (Carlo ERBA SAS, #414855, Val-de-Reuil, France). After washing and saturation with a specific blocking buffer (3% BSA), 10% Goat serum (Gibco Invitrogen, #16210064, Carlsbad, CA, USA) in PBS), cells were incubated for 45 min at room temperature (RT) with anti-alpha-tubulin antibody (clone α3A1 [40] in blocking buffer). Cells were washed twice again and subsequently incubated with Alexa 488 conjugated anti-mouse antibody (1:500 in blocking buffer, #115-545-166, Jackson immune-research laboratory, Cambridgeshire, UK) and DNA was stained with Hoechst 33342 (1:10,000 in blocking buffer) for 30 min at RT. Coverslips were mounted on glass slides with Moviol 4–88.
(§2) Images were captured with a Zeiss AxioimagerM2 microscope equipped with the acquisition software AxioVision (Marly-le-Roi, France).

RPE-1 cells = experiment: Cell viability, PrestoBlue assay, RPE-1; type: cell-based; conditions: Homo sapiens, 48 h, mean ± SEM, read-out: GI50 (concentration causing 50% cell growth inhibition)
Method: (§3) Cell viability was analyzed using the colorimetric PrestoBlue assay (Gibco Invitrogen, #A13262, Carlsbad, CA, USA). Cells were seeded in 96-well microplates (#655077, Greiner, Courtaboeuf, France) at density of 2500 cells per well and allowed to adhere for 24 h before being treated for 48 h with the drugs at indicated concentrations or corresponding concentrations of DMSO as controls, in a final volume of 90 µL. After 48 h of treatment, 10 µL PrestoBlue was added to each well and cells were incubated for another 45 min. The absorbance of each well was measured using a FLUOstar microplate reader (Excitation: 544 nm; Emission: 580 nm, BMG Lab technology, Champagny/Marne, France).

HeLa cells = experiment: Cell viability, PrestoBlue assay, HeLa; type: cell-based; conditions: Homo sapiens, 48 h, mean ± SEM, read-out: GI50 (concentration causing 50% cell growth inhibition)
Method: as §3

[2] = test system: cellular microtubules in HeLa cells; experiment: Quantitative immunoluminescent assay of the cellular microtubule content; type: cell-based; conditions: Homo sapiens, 0.5 h, 30 min incubation, mean ± SEM, read-out: IC50, drug concentration able to reduce the amount of cellular microtubules by half
Method: 7500 HeLa cells were seeded in 96-well microplates (#655086, Greiner bio One, Courtaboeuf, France) in 100 µL of complete medium per well and then incubated at 37 °C in 5% CO2 for 24 h. Cells were then treated for 30 min at 37 °C with the compounds at concentrations ranging from 1 to 5000 nM (1 microplate per molecule, 1 concentration per column), with 0.1% DMSO used as […] control (6 wells per microplate). After medium aspiration, treated cells were permeabilized for 10 min using 100 µL per well of warmed (37 °C) OPT buffer (80 mM Pipes, 1 mM EGTA, 1 mM MgCl2, 0.5% Triton X-100, and 10% glycerol, pH 6.8). Cells were fixed overnight at room temperature using 100 µL per well of 4% formaldehyde (Sigma Aldrich, #252549, Saint-Quentin-Fallavier, France) in PBS. Cells were washed 3 times in PBS, 0.1% Tween-20 (100 µL per well), then primary anti-alpha-tubulin antibody (clone α3A1 [40], 1:5000 in PBS 2% Bovine Serum Albumin (BSA)) was added for 45 min. Cells were washed twice again and secondary anti-mouse antibody coupled to HRP (1:2000 in PBS 2% BSA, #715-035-150, Jackson Immuno-Research Laboratories, Cambridgeshire, UK) was added for 45 min. Then, cells were washed again with PBS and 100 µL of ECL substrate (#170-5061, Bio-Rad Laboratories inc., USA) were injected in each well using the FLUOstar OPTIMA Microplate Reader (BMG Lab technology, Champagny-sur-Marne, France). The luminescent signal was read immediately after ECL injection.

HeLa cells microtubules = experiment: Immunofluorescence analysis of HeLa cells microtubules; type: cell-based, Human; conditions: 50 nM, 30 min
Method: as §1, §2

porcine tubulin = porcine tubulin (Sus scrofa, UniProt P02550+P02554); experiment: biochemical
Method: Tubulin polymerization kit ((#BK004) was purchased from Cytoskeleton, Inc. (Denver, CO, USA). To study the effect of the compounds on MT assembly, the absorbance-based in vitro tubulin polymerization assay was performed following the manufacturer’s protocol. The reaction mixture containing porcine tubulin (40 µM) in G-PEM buffer (80 mM PIPES pH 6.9, 2.0 mM MgCl2, 0.5 mM EGTA, and 5% glycerol) supplemented with 1.0 mM GTP, in the presence of DMSO (0.18%) or the compound to be tested, was prepared and added to each well of a 96-well plate (half area, #675096, Greiner Bio One, Courtaboeuf, France). Tubulin polymerization was monitored by the increase in absorbance over time, measured by a CLARIOstar^plus Microplate reader from BMG Lab technology (Champagny-sur-Marne, France).

Sequence of porcine tubulin (P02554 whole entry): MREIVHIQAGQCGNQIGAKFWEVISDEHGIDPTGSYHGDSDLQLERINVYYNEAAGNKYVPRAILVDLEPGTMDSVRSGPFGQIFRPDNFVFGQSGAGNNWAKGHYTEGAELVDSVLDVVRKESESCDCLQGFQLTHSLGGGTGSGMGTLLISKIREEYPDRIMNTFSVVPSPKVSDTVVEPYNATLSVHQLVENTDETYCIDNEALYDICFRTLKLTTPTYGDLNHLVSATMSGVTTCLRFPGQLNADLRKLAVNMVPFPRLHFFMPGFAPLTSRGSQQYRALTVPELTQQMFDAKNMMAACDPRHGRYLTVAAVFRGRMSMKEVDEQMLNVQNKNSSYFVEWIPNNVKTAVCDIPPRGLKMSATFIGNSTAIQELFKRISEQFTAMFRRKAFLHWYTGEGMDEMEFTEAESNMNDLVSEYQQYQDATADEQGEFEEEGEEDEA
Sequence of porcine tubulin (P02550 whole entry): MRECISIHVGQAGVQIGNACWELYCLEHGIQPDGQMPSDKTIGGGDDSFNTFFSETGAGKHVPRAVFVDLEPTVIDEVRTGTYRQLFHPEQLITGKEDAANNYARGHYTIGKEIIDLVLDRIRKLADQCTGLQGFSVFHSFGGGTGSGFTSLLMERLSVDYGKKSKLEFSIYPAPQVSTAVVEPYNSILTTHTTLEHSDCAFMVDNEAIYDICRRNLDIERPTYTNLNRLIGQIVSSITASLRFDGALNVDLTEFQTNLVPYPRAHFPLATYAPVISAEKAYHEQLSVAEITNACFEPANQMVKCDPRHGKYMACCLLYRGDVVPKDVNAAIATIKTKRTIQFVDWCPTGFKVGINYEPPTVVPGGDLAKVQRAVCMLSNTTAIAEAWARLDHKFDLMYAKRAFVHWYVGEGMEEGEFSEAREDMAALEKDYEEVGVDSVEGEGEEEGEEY

Structure (SMILES) | effect on tubulin assembly kinetics (tubulin) | effect on the microtubular network of interphase cells [1] | effect on cell microtubules by immunofluorescence (RPE1 cell microtubules) | GI50 (RPE-1 cells) [nM] | GI50 (HeLa cells) [nM] | IC50 [2] [nM] | state of the MT network by immunofluorescence (HeLa cells microtubules) | IC50 (porcine tubulin) [nM] | concentration giving almost complete depolymerization / inhibition of tubulin assembly (porcine tubulin; tubulin 40 µM) [µM]
Cc1cc(-n2cccc2)c(C)c2c1[nH]c1ccc(Cl)cc12 [Carba1] | visible depolymerizing effect | no detectable effect | – | – | – | – | – | – | –
COc1ccc(/C=C\c2cc(OC)c(OC)c(OC)c2)cc1O [C-A4, combretastatin-A4] | – | – | depolymerized cell microtubules | 4.16 ± 1.42 | 0.93 ± 0.07 | 4.5 ± 0.76 | only few MTs remain | – | –
COC(=O)Nc1nc2ccc(C(=O)c3cccs3)cc2[nH]1 [nocodazole] | – | – | – | 81.7 ± 4.41 | 49.3 ± 2.6 | 350 ± 76.4 | a MT network is still present | ~5000 | ≥ 40
CC[C@]1(O)C[C@@H]2CN(CCc3c([nH]c4ccccc34)[C@@](C(=O)OC)(c3cc4c(cc3OC)N(C)[C@H]3[C@@](O)(C(=O)OC)[C@H](OC(C)=O)[C@]5(CC)C=CCN6CC[C@]43[C@@H]65)C2)C1 [vinblastine] | – | – | depolymerized cell microtubules | 0.7 ± 0.77 | 0.73 ± 0.02 | 4.83 ± 0.17 | only few MTs remain | ~1000 | –
COc1cc2c(c(OC)c1OC)-c1ccc(OC)c(=O)cc1[C@@H](NC(C)=O)CC2 [colchicine] | – | – | – | – | – | – | a MT network is still present | – | –
